Holding throughout (assay): NCI anticancer screen, dose series, 48 h
Assay [1] has as its system A498 renal.
Assay [2] concerns DU-145 prostate.
Assay [3] deals with HCT-15 colon.
For assay [4], the system named is MALME-3M melanoma.
The test system of assay [5] is MDA-N.
Assay [6] relates to NCI-H23 lung.
The test system of assay [7] is NCI/ADR-RES ovarian.
In assay [8] the test system is SF-268 CNS.
Assay [9] has as its system SW-620 colon.
Assay [10] relates to UO-31 renal.

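Method: 48-hour compound exposure of cells in 96-well plates, five concentrations, linear interpolation of endpoints. Here, GI50 denotes the concentration required for 50% inhibition of growth. TGI: total growth inhibition.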

For `CC(C)=CCC[C@@H](C)C1=C(Nc2ccccc2F)C(O)=C(C)C(=O)C1=O`, the TGI in assay [1] is above 43.9 µM; in assay [2], above 100 µM; in [3] it was above 70.6 µM; in assay [4], 29.5 µM; in [5], above 100 µM; in assay [6] it was 36.1 µM. In addition, the TGI in assay [7] is above 23.8 µM; in assay [8] it was above 100 µM; in assay [9], above 69.1 µM; in assay [10], 25.2 µM.

In the case of `C=C1[C@@H]2CCC3[C@]4(C)C(CC[C@@]5(C)C(=O)O[C@H](O)[C@@H]45)[C@H](O)[C@]3(C2)[C@H]1OC1OC(CO)C(O)C(O)C1O` (some centres not stated), the TGI in assay [1], in assay [2], in assay [3], in [4], in [5] and in assay [6] was above 50 µM each time. Also, the TGI in assay [7], in assay [8], in assay [9] and in assay [10] was above 50 µM throughout.

Turning to `O=C([C@H](O)[C@@H](O)c1cccc(Cl)c1)C12CC3CC(CC(C3)C1)C2`, the TGI in assay [1] is 5.46 µM; in assay [2], 5.08 µM; in assay [3] it was 6.62 µM; in assay [4] it was 18.2 µM; in assay [5], 5.92 µM; in assay [6], 3.84 µM. Also, the TGI in assay [7] was 5.52 µM; in [8] it was 4.04 µM; in assay [9], above 45 µM; in assay [10], 3.83 µM.

For the molecule `CCC1(CC)C(=O)N(C(=O)c2cc(OC)c(OC)c(OC)c2)N(C(=O)c2cc(OC)c(OC)c(OC)c2)C1=O`, the TGI in assay [1], in assay [2], in [3], in [4], in [5] and in [6] was above 50 µM each time. Moreover, the TGI in assay [7], in [8], in assay [9] and in [10] was above 50 µM each time.

Take `Cc1ccc(C)c(COCCOCn2cc(N3CCOCC3)c(=O)[nH]c2=O)c1`: the TGI in assay [1], in [2], in [3], in assay [4], in assay [5] and in [6] was above 100 µM in each case. In addition, the TGI in assay [7], in assay [8], in [9] and in [10] was above 100 µM each time.

As for `C[C@H]1[C@H](C)CC[C@]2(C(=O)OC3OC(CO)C(O)C(O)C3O)CC[C@]3(C)C(=CC[C@@H]4[C@@]5(C)C[C@@H](O)[C@@H]6OC(=O)c7cc(O)c(O)c(O)c7-c7c(cc(O)c(O)c7O)C(=O)OC[C@@]6(CO)[C@@H]5CC[C@]43C)[C@H]12` (some centres not stated), the TGI is above 100 µM in assay [1]; above 100 µM in assay [2]; above 100 µM in assay [3]; above 100 µM in assay [4]; 51.4 µM in assay [5]; above 100 µM in assay [6]. The TGI in [7] is above 100 µM; in assay [8], above 100 µM; in [9], above 67 µM; in [10], above 100 µM.

Consider `CS(=O)(=O)Nc1ccc2ccccc2c1`, for which the TGI in [1], in assay [2], in assay [3], in assay [4], in assay [5] and in [6] was above 100 µM each time. The TGI in assay [7], in assay [8], in assay [9] and in assay [10] was above 100 µM throughout.

With `CSc1nc(Cl)c2c(n1)Sc1nc3ccccc3n1C2O` (configuration not stated), the TGI in [1] was above 100 µM; in assay [2] it was 41.9 µM; in assay [3] it was above 40.2 µM; in assay [4], above 67.3 µM; in assay [5], above 100 µM; in assay [6], above 100 µM. In addition, the TGI in [7] was above 24.4 µM; in assay [8], 55 µM; in assay [9], 25.7 µM; in assay [10], 24.3 µM.

As for `c1ccc2c(c1)cc1ccc3cccc4ccc2c1c34`, the GI50 in assay [1] and in assay [4] was above 100 µM in each case. Also, the TGI in [1], in assay [2], in [3], in assay [4], in assay [5] and in assay [6] was above 100 µM each time. Also, the TGI in assay [7], in assay [8], in assay [9] and in assay [10] was above 100 µM throughout.

For the molecule `COC1(CC[C@H](C)COC2OC(CO)C(O)C(O)C2O)O[C@H]2C[C@H]3[C@@H]4CC=C5C[C@@H](OC6OC(CO)C(OC7OC(C)C(O)C(O)C7O)C(O)C6OC6OC(C)C(O)C(O)C6O)CC[C@]5(C)[C@H]4CC[C@]3(C)[C@H]2[C@@H]1C` (some centres not stated), the TGI in [1] is 64.5 µM; in [2], 5.77 µM; in assay [3] it was 7.47 µM; in assay [4] it was 9.15 µM; in [5], 9.57 µM; in [6], 19.2 µM. The TGI in [7] turned out to be 11.1 µM; in [8] it was 10.3 µM; in assay [9], 6.78 µM; in assay [10] it was 6.79 µM.

On to `CC1(C)OCC(C2OC(C)(C)OC2[C@H]2O[C@@]3(O)[C@H]4[C@H](C=CC[C@@H]42)[C@@H](OCc2ccccc2)[C@H](OCc2ccccc2)[C@H]3OCc2ccccc2)O1` (some centres not stated), for which the TGI in assay [1] is above 100 µM; in assay [2], above 100 µM; in assay [3] it was above 100 µM; in [4], above 100 µM; in assay [5], 44.8 µM; in assay [6], above 100 µM. In addition, the TGI in [7] was above 100 µM; in [8] it was above 100 µM; in [9] it was above 100 µM; in assay [10], 72.3 µM.

As to `CCC1([N+](=O)[O-])CN(N=O)C1`, the TGI in assay [1], in assay [2], in [3], in [4], in assay [5] and in assay [6] was above 100 µM each time. Also, the TGI in assay [7], in assay [8], in assay [9] and in assay [10] was above 100 µM throughout.

(Values after PubChem BioAssay (NCI).)
